Experimental findings from PubChem BioAssay (NCI) are described below.

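A five-concentration, 48-hour dose response in 96-well plates underlies each endpoint, interpolated linearly between surrounding concentrations. TGI: total growth inhibition.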

The first assay relates to BT-549 breast. The experiment in a line: NCI-60 cell line screen, 48 h.
As for `Cc1ccccc1Nc1nc2c(s1)C(=O)c1ccccc1C2=O`, the TGI is 6.57 µM.
In the case of `CC(=O)NNc1nc(C)c(C(=O)NNC(=O)C(=O)Nc2nc3ccc([N+](=O)[O-])cc3s2)s1`, the TGI is greater than 100 µM.

In another assay the test system is DLD-1 colon. The experiment in a line: NCI-60 cell line screen, 48 h.
`Cc1ccccc1Nc1nc2c(s1)C(=O)c1ccccc1C2=O`: the TGI worked out at 13.6 µM.
Same read-out and setting: then `CC(=O)NNc1nc(C)c(C(=O)NNC(=O)C(=O)Nc2nc3ccc([N+](=O)[O-])cc3s2)s1`, with greater than 100 µM.
Still for that read-out and setting: as for `C#CCC(N)(CO)C(=O)O` (stereo not drawn), the figure is greater than 100 µM; as for `CSc1c(C)c(C)nn1-c1ccccc1`, greater than 100 µM; as for `COc1cc2cnc3c4ccccc4ccc3c2cc1OC`, greater than 100 µM.
Turning to `Cc1cc(N(CCC#N)CCC#N)ccc1/C=C1N=C(/C=C/c2ccccc2)OC(=O)N\1`, the TGI was greater than 100 µM.
Still for that read-out and setting: then `O=c1ncccn1C1C=C(CO)C(O)C1O` (stereo not drawn), with greater than 50 µM; and `CCN(CC)CC(=O)N1CCc2c([nH]c3ccccc23)C1c1cccnc1` (stereo not drawn), with greater than 100 µM.
On the same count and under the same terms, as for `O=c1c(Cl)c(Cl)cnn1CCc1ccncc1`, the figure is 30.4 µM; as for `CCCCCCCCCCCCCC(=O)OCC1OC(=O)CC1O` (stereo not drawn), greater than 100 µM.
`N=S(c1ccccc1)c1ccccc1[N+](=O)[O-]` (stereo not drawn) yielded a TGI of 46 µM.
Still for that read-out and setting: then `O=C/C(=C(/Cl)c1ccc(O)cc1)c1ccccc1`, with greater than 60.1 µM.

The next assay concerns DMS 114 small cell lung. The experiment in a line: NCI-60 cell line screen, 48 h.
On to `Cc1ccccc1Nc1nc2c(s1)C(=O)c1ccccc1C2=O`, for which the TGI stood at 4.69 µM.
Still for that read-out and setting: as for `CC(=O)NNc1nc(C)c(C(=O)NNC(=O)C(=O)Nc2nc3ccc([N+](=O)[O-])cc3s2)s1`, the figure is 82.5 µM.
Same read-out and setting: as for `C#CCC(N)(CO)C(=O)O` (stereo not drawn), the figure is greater than 100 µM; as for `CSc1c(C)c(C)nn1-c1ccccc1`, greater than 100 µM.
On the same count and under the same terms, then `COc1cc2cnc3c4ccccc4ccc3c2cc1OC`, with greater than 100 µM.
The molecule `Cc1cc(N(CCC#N)CCC#N)ccc1/C=C1N=C(/C=C/c2ccccc2)OC(=O)N\1` came in with a TGI greater than 100 µM.
Same read-out and setting: as for `O=c1ncccn1C1C=C(CO)C(O)C1O` (stereo not drawn), the figure is greater than 50 µM; as for `CCN(CC)CC(=O)N1CCc2c([nH]c3ccccc23)C1c1cccnc1` (stereo not drawn), greater than 100 µM.
Same read-out and setting: then `O=c1c(Cl)c(Cl)cnn1CCc1ccncc1`, with 29 µM; and `CCCCCCCCCCCCCC(=O)OCC1OC(=O)CC1O` (stereo not drawn), with greater than 100 µM.
`N=S(c1ccccc1)c1ccccc1[N+](=O)[O-]` (stereo not drawn) displayed a TGI of 32.7 µM.
On the same count and under the same terms, as for `O=C/C(=C(/Cl)c1ccc(O)cc1)c1ccccc1`, the figure is 31.2 µM.

For a further assay, the system named is DU-145 prostate. The experiment in a line: NCI-60 cell line screen, 48 h.
Regarding `Cc1ccccc1Nc1nc2c(s1)C(=O)c1ccccc1C2=O`, the TGI was found to be 20 µM.
As to `CC(=O)NNc1nc(C)c(C(=O)NNC(=O)C(=O)Nc2nc3ccc([N+](=O)[O-])cc3s2)s1`, the TGI is greater than 100 µM.
On the same count and under the same terms, then `O=C/C(=C(/Cl)c1ccc(O)cc1)c1ccccc1`, with greater than 100 µM.

The next assay concerns HS 578T breast. The assay can be described thus: NCI-60 cell line screen, 48 h.
`CC(=O)NNc1nc(C)c(C(=O)NNC(=O)C(=O)Nc2nc3ccc([N+](=O)[O-])cc3s2)s1` registered a TGI greater than 100 µM.

The next assay deals with LXFL 529 NSCLC. The assay can be described thus: NCI-60 cell line screen, 48 h.
As to `Cc1ccccc1Nc1nc2c(s1)C(=O)c1ccccc1C2=O`, the TGI is 14.8 µM.
The same measure, in the same setting: then `CC(=O)NNc1nc(C)c(C(=O)NNC(=O)C(=O)Nc2nc3ccc([N+](=O)[O-])cc3s2)s1`, with greater than 100 µM; and `C#CCC(N)(CO)C(=O)O` (stereo not drawn), with greater than 100 µM; and `CSc1c(C)c(C)nn1-c1ccccc1`, with greater than 100 µM.
Still for that read-out and setting: as for `COc1cc2cnc3c4ccccc4ccc3c2cc1OC`, the figure is greater than 100 µM; as for `Cc1cc(N(CCC#N)CCC#N)ccc1/C=C1N=C(/C=C/c2ccccc2)OC(=O)N\1`, greater than 100 µM; as for `O=c1ncccn1C1C=C(CO)C(O)C1O` (stereo not drawn), greater than 50 µM.
Same read-out and setting: then `CCN(CC)CC(=O)N1CCc2c([nH]c3ccccc23)C1c1cccnc1` (stereo not drawn), with greater than 100 µM; and `O=c1c(Cl)c(Cl)cnn1CCc1ccncc1`, with 29.8 µM.
`CCCCCCCCCCCCCC(=O)OCC1OC(=O)CC1O` (stereo not drawn) showed a TGI greater than 100 µM.
The same measure, in the same setting: then `N=S(c1ccccc1)c1ccccc1[N+](=O)[O-]` (stereo not drawn), with 30.9 µM; and `O=C/C(=C(/Cl)c1ccc(O)cc1)c1ccccc1`, with 59.9 µM.

A further assay relates to MDA-MB-435. The assay can be described thus: NCI-60 cell line screen, 48 h.
Molecule `CC(=O)NNc1nc(C)c(C(=O)NNC(=O)C(=O)Nc2nc3ccc([N+](=O)[O-])cc3s2)s1` showed a TGI greater than 100 µM.

The test system of a further assay is NCI/ADR-RES ovarian. The assay can be described thus: NCI-60 cell line screen, 48 h.
`CC(=O)NNc1nc(C)c(C(=O)NNC(=O)C(=O)Nc2nc3ccc([N+](=O)[O-])cc3s2)s1` had a TGI greater than 100 µM.

For a further assay, the system named is SNB-78 CNS. The experiment in a line: NCI-60 cell line screen, 48 h.
Turning to `Cc1ccccc1Nc1nc2c(s1)C(=O)c1ccccc1C2=O`, the TGI was greater than 64.8 µM.
The same measure, in the same setting: as for `CC(=O)NNc1nc(C)c(C(=O)NNC(=O)C(=O)Nc2nc3ccc([N+](=O)[O-])cc3s2)s1`, the figure is greater than 100 µM.
Still for that read-out and setting: as for `C#CCC(N)(CO)C(=O)O` (stereo not drawn), the figure is greater than 100 µM.
The same measure, in the same setting: then `CSc1c(C)c(C)nn1-c1ccccc1`, with greater than 100 µM; and `COc1cc2cnc3c4ccccc4ccc3c2cc1OC`, with greater than 100 µM; and `Cc1cc(N(CCC#N)CCC#N)ccc1/C=C1N=C(/C=C/c2ccccc2)OC(=O)N\1`, with greater than 100 µM.
In turn, `O=c1ncccn1C1C=C(CO)C(O)C1O` (stereo not drawn) showed a TGI greater than 50 µM.
Same read-out and setting: as for `CCN(CC)CC(=O)N1CCc2c([nH]c3ccccc23)C1c1cccnc1` (stereo not drawn), the figure is greater than 100 µM; as for `O=c1c(Cl)c(Cl)cnn1CCc1ccncc1`, 49.8 µM; as for `CCCCCCCCCCCCCC(=O)OCC1OC(=O)CC1O` (stereo not drawn), greater than 100 µM.
The same measure, in the same setting: as for `N=S(c1ccccc1)c1ccccc1[N+](=O)[O-]` (stereo not drawn), the figure is greater than 100 µM; as for `O=C/C(=C(/Cl)c1ccc(O)cc1)c1ccccc1`, greater than 82.9 µM.

In the next assay the test system is XF 498 CNS. The assay can be described thus: NCI-60 cell line screen, 48 h.
Consider `Cc1ccccc1Nc1nc2c(s1)C(=O)c1ccccc1C2=O`, for which the TGI was found to be 29.3 µM.
`CC(=O)NNc1nc(C)c(C(=O)NNC(=O)C(=O)Nc2nc3ccc([N+](=O)[O-])cc3s2)s1` came in with a TGI of 75.9 µM.
Still for that read-out and setting: as for `C#CCC(N)(CO)C(=O)O` (stereo not drawn), the figure is greater than 100 µM; as for `CSc1c(C)c(C)nn1-c1ccccc1`, greater than 100 µM; as for `COc1cc2cnc3c4ccccc4ccc3c2cc1OC`, greater than 100 µM.
In the case of `Cc1cc(N(CCC#N)CCC#N)ccc1/C=C1N=C(/C=C/c2ccccc2)OC(=O)N\1`, the TGI was greater than 100 µM.
`O=c1ncccn1C1C=C(CO)C(O)C1O` (stereo not drawn) came in with a TGI greater than 50 µM.
Regarding `CCN(CC)CC(=O)N1CCc2c([nH]c3ccccc23)C1c1cccnc1` (stereo not drawn), the TGI is greater than 100 µM.
Same read-out and setting: as for `O=c1c(Cl)c(Cl)cnn1CCc1ccncc1`, the figure is 29.6 µM; as for `CCCCCCCCCCCCCC(=O)OCC1OC(=O)CC1O` (stereo not drawn), greater than 100 µM; as for `N=S(c1ccccc1)c1ccccc1[N+](=O)[O-]` (stereo not drawn), 19.6 µM.
In turn, `O=C/C(=C(/Cl)c1ccc(O)cc1)c1ccccc1` had a TGI greater than 45.4 µM.
